Measured values: patent US7608622B2, “Imidazo[4,5-b]pyrazinone inhibitors of protein kinases” (Janssen Pharmaceutica NV, priority 2004, dated 2009)

Molecular target: T1, Aurora-2 (Homo sapiens, UniProt O14965)
T1 construct: autophosphorylation of Aurora-2 (residues 125-391)
T1 sequence (O14965 125-391): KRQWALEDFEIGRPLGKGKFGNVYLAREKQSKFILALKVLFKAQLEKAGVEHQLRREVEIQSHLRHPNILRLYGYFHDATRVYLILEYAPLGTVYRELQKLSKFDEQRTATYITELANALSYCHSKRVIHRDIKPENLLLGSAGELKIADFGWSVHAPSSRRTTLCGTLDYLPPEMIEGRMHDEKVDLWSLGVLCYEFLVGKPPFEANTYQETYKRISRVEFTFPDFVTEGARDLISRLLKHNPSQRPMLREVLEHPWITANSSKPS
Assay: Aurora-2 Enzymatic Assay (ELISA-based)
Type: biochemical
Settings: phosphorylated Aurora-2 (residues 125-391), Histone H3 Ser-10 phosphorylation, averages of three independent measurements; read-out: Aurora-2 IC50 Enzyme
Protocol: In vitro assays were run to measure potency of Aurora-2 kinase inhibition by selected compounds of Formula I.
Aurora-2 Enzymatic Assay. An ELISA-based enzymatic assay was used to determine the compound potency for Aurora-2. In this assay, phosphorylated Aurora-2 (Pi-Aurora-2) catalyzes the ATP-dependent phosphorylation of Ser-10 of Histone H3. Pi-Aurora-2 was produced by autophosphorylation of Aurora-2 (residues 125-391) by 1 mM ATP in the presence of 10 mM MgCl2. The assay buffer used was 100 mM HEPES, pH 7.5, 1 mM DTT, 0.01% (v/v) Tween-20. Compounds were diluted in assay buffer containing 4% DMSO just prior to the assay. • Procedure. High-binding 96-well ELISA plates (Costar 9018) were coated overnight at 4° C. with 10 μg/ml human Histone H3 (Upstate) in PBS (100 μl/well). The following day, the plates were emptied and blocked with 1% BSA in PBS (150 μl/well) for 1 h at 37° C. At the end of the incubation, plates were washed 3 times with 0.01% Tween-20 in PBS (300 μl/well). 50 μl of compound were dispensed to each well followed by addition of 20 μl 10 mM MgCl2 and 20 μl 50 μM ATP (Sigma). The reaction was initiated by addition of 10 μl 30 nM Pi-Aurora-2. […] The reaction was quenched with 9 μl 50 mM EDTA and the plates were washed 5 times with 0.01% Tween-20 in PBS (300 μl/well). The phospho-histone H3 (Ser10) 6G3 monoclonal antibody (Cell Signaling) was then diluted 2,000-fold with 1% BSA in PBS, and was added to the plates (100 μl/well). Following 1 h incubation at 37° C., the plates were washed as described above. The HRP-conjugated secondary antibody (goat anti-mouse Ig(H+ L)-HRP human absorbed, Southern Biotechnology Associates, Inc.) was diluted 20,000-fold with 1% BSA in PBS and was added to the plates (100 μl/well). The plates were incubated for 1 h at 37° C. and then washed 5 times with 0.01% Tween-20 in PBS (300 μl/well). 100 μl/well TMB, SureBlue Reserve (KPL) were added. After ca. 5-6 min, each well received 100 μl 1 M HCl and the OD450 was measured with a SpectraMax Plus microplate reader (Molecular Devices). Under these conditions, absorbance values for positive and negative controls were ca. 0.1 and 1.7, respectively, and were used to define the 100% and 0% inhibition of the Aurora-2 reaction. The IC50 values reported (Table 1) are the averages of three independent measurements.

IC50, < 500 nM:
COc1cc(-c2cnc3[nH]c(=O)n(Cc4ccc(N)cc4)c3n2)cc(OC)c1OC [Compound 38, 1-(4-Aminobenzyl)-6-(3,4,5-trimethoxyphenyl)-1,3-dihydroimidazo[4,5-b]pyrazin-2-one]
COc1cc(-c2cnc3[nH]c(=O)n(C4CCc5ccccc54)c3n2)cc(OC)c1OC (stereo not shown) [Compound 35, 1-Indan-1-yl-6-(3,4,5-trimethoxyphenyl)-1,3-dihydroimidazo[4,5-b]pyrazin-2-one]
COc1cc(-c2cnc3[nH]c(=O)n(Cc4cccnc4)c3n2)cc(OC)c1OC [Compound 20, 1-Pyridin-3-yl methyl-6-(3,4,5-trimethoxyphenyl)-1,3-dihydroimidazo-[4,5-b]pyrazin-2-one]
COc1ccc(-c2cnc3[nH]c(=O)n(Cc4ccccc4)c3n2)cc1C(=O)O [Compound 23, 5-(3-Benzyl-2-oxo-2,3-dihydro-1H-imidazo[4,5-b]pyrazin-5-yl)-2-methoxybenzoic acid]
COc1cc(-c2cnc3[nH]c(=O)n(Cc4ccccc4)c3n2)cc(OC)c1OC [Compound 3, 1-Benzyl-6-(3-4,5-trimethoxyphenyl)-1,3-dihydroimidazo[4,5-b]pyrazin-2-one]
COc1cc(-c2cnc3[nH]c(=O)n(Cc4cccs4)c3n2)cc(OC)c1OC [Compound 36, 1-Thiophen-2-ylmethyl-6-(3,4,5-trimethoxyphenyl)-1,3-dihydro-imidazo[4,5-b]pyrazin-2-one]
COc1cc(-c2cnc3[nH]c(=O)n(Cc4ccccc4Cl)c3n2)cc(OC)c1OC [Compound 37, 1-(2-Chlorobenzyl)-6-(3,4,5-trimethoxyphenyl)-1,3-dihydro-imidazo[4,5-b]pyrazin-2-one]

IC50, > 1000 nM:
O=c1[nH]c2ncc(-c3ccsc3)nc2n1Cc1ccccc1 [Compound 15, 1-Benzyl-6-thiophen-3-yl-1,3-dihydroimidazo[4,5-b]pyrazin-2-one]
COc1cc(-c2cnc3[nH]c(=O)n(Cc4cccc5ccccc45)c3n2)cc(OC)c1OC [Compound 33, 1-Naphthalen-1-ylmethyl-6-(3,4,5-trimethoxyphenyl)-1,3-dihydro-imidazo[4,5-b]pyrazin-2-one]
COc1ccc(-c2cnc3[nH]c(=O)n(Cc4ccccc4)c3n2)c(OC)c1 [Compound 14, 1-Benzyl-6-(2,4-dimethoxyphenyl)-1,3-dihydroimidazo[4,5-b]pyrazin-2-one]
COc1cc(OC)cc(-c2cnc3[nH]c(=O)n(Cc4ccccc4)c3n2)c1 [Compound 21, 1-Benzyl-6-(3,5-dimethoxyphenyl)-1,3-dihydro-imidazo[4,5-b]pyrazin-2-one]
COc1cc(-c2cnc3[nH]c(=O)n(Cc4cccc([N+](=O)[O-])c4)c3n2)cc(OC)c1OC [Compound 27, 1-(3-Nitrobenzyl)-6-(3,4,5-trimethoxyphenyl)-1,3-dihydroimidazo[4,5-b]pyrazin-2-one]
C[C@@H](c1ccccc1)n1c(=O)[nH]c2ncc(-c3cccc(C#N)c3)nc21 [Compound 6, 3-[2-Oxo-3-((S)-(−)-1-phenylethyl)-2,3-dihydro-1H-imidazo[4,5-b]pyrazin-5-yl]benzonitrile]
COc1ccc(-c2cnc3[nH]c(=O)n(Cc4ccccc4)c3n2)cn1 [Compound 11, 1-Benzyl-6-(6-methoxypyridin-3-yl)-1,3-dihydroimidazo[4,5-b]pyrazin-2-one]
COc1ccc(-c2cnc3[nH]c(=O)n(Cc4ccccc4)c3n2)cc1CO [Compound 24, 1-Benzyl-6-(3-hydroxymethyl-4-methoxyphenyl)-1,3-dihydro-imidazo[4,5-b]pyrazin-2-one]
COc1cc(-c2cnc3[nH]c(=O)n([C@H](C)c4ccccc4)c3n2)cc(OC)c1OC [Compound 2, 1-((R)-(+)-1-Phenylethyl)-6-(3,4,5-trimethoxyphenyl)-1,3-dihydro-imidazo[4,5-b]pyrazin-2-one]

IC50, 500 to 1000 nM:
COc1cc(-c2cnc3[nH]c(=O)n(Cc4ccccn4)c3n2)cc(OC)c1OC [Compound 19, 1-Pyridin-2-ylmethyl-6-(3,4,5-trimethoxyphenyl)-1,3-dihydroimidazo[4,5-b]pyrazin-2-one]
COc1cc(-c2cnc3[nH]c(=O)n(Cc4cccc(N)c4)c3n2)cc(OC)c1OC [Compound 39, 1-(3-Aminobenzyl)-6-(3,4,5-trimethoxyphenyl)-1,3-dihydro-imidazo[4,5-b]pyrazin-2-one]
COc1cc(-c2cnc3[nH]c(=O)n(Cc4ccc(Cl)cc4)c3n2)cc(OC)c1OC [Compound 28, 1-(4-Chlorobenzyl)-6-(3,4,5-trimethoxyphenyl)-1,3-dihydro-imidazo[4,5-b]pyrazin-2-one]
C[C@@H](c1ccccc1)n1c(=O)[nH]c2ncc(-c3cccc(CO)c3)nc21 [Compound 7, 6-(3-Hydroxymethylphenyl)-1-((S)-(−)-1-phenylethyl)-1,3-dihydro-imidazo[4,5-b]pyrazin-2-one]
O=C(O)c1cccc(-c2cnc3[nH]c(=O)n(Cc4ccccc4)c3n2)c1 [Compound 18, 3-(3-Benzyl-2-oxo-2,3-dihydro-1H-imidazo[4,5-b]pyrazin-5-yl)benzoic acid]
COc1cc(-c2cnc3[nH]c(=O)n(Cc4cccc(C)c4)c3n2)cc(OC)c1OC [Compound 30, 1-(3-Methylbenzyl)-6-(3,4,5-trimethoxyphenyl)-1,3-dihydro-imidazo[4,5-b]pyrazin-2-one]
